Data reported in PMC11859928, “Design, Synthesis, and Antiproliferative Activity of Novel Indole/1,2,4-Triazole Hybrids as Tubulin Polymerization Inhibitors” (Pharmaceuticals, 2025).

What was measured:
Experiment in all cases: NCI one-dose assay
A549/ATCC = format: cell-based; settings: Homo sapiens, Non-small cell lung cancer, read-out: Cell growth inhibition %
Description: (§1) The National Cancer Institute (NCI), Bethesda, USA, selected the final compounds 6a–j and 7a–j for in vitro anticancer screening. An initial in vitro single-dose anticancer experiment was performed with the entire NCI 60 cell lines derived from nine tumor subpanel cancer cell lines. The results for each compound were illustrated as a mean graph showing the percentage growth of treated cells compared to untreated control cells (see Supplementary Materials).
(§2) The NCI anticancer screening process has been thoroughly detailed. The Drug Evaluation Branch of the National Cancer Institute in Bethesda, […], USA, established the procedure and conducted the anticancer assay on 60 human tumor cell lines from nine neoplastic cancers.

DU-145 = format: cell-based; settings: Homo sapiens, DU-145, Prostate cancer, read-out: Cell growth inhibition %
Description: as §1, §2

EKVX = format: cell-based; settings: Homo sapiens, Non-small cell lung cancer, read-out: Cell growth inhibition %
Description: as §1, §2

HCC-2998 = format: cell-based; settings: Homo sapiens, HCC-2998, Colon cancer, read-out: Cell growth inhibition %
Description: as §1, §2

HL-60(TB) = format: cell-based; settings: Homo sapiens, Leukemia, read-out: Cell growth inhibition %
Description: as §1, §2

HS 578 T = format: cell-based; settings: Homo sapiens, Breast cancer, read-out: Cell growth inhibition %
Description: as §1, §2

HT29 = format: cell-based; settings: Homo sapiens, HT-29, HT29, Colon cancer, read-out: Cell growth inhibition %
Description: as §1, §2

IGROV1 = format: cell-based; settings: Homo sapiens, IGROV-1, IGROV1, Ovarian cancer, read-out: Cell growth inhibition %
Description: as §1, §2

K-562 = format: cell-based; settings: Homo sapiens, K562, K-562, Leukemia, read-out: Cell growth inhibition %
Description: as §1, §2

M14 = format: cell-based; settings: Homo sapiens, M14, Melanoma, read-out: Cell growth inhibition %
Description: as §1, §2

MALME-3M = format: cell-based; settings: Homo sapiens, Melanoma, read-out: Cell growth inhibition %
Description: as §1, §2

MDA-MB-231/ATCC = format: cell-based; settings: Homo sapiens, Breast cancer, read-out: Cell growth inhibition %
Description: as §1, §2

NCI-H23 = format: cell-based; settings: Homo sapiens, NCI-H23, Non-small cell lung cancer, read-out: Cell growth inhibition %
Description: as §1, §2

NCI-H460 = format: cell-based; settings: Homo sapiens, NCI-H460, Non-small cell lung cancer, read-out: Cell growth inhibition %
Description: as §1, §2

NCI-H522 = format: cell-based; settings: Homo sapiens, NCI-H522, Non-small cell lung cancer, read-out: Cell growth inhibition %
Description: as §1, §2

NCI/ADR-RES = format: cell-based; settings: Homo sapiens, Ovarian cancer, read-out: Cell growth inhibition %
Description: as §1, §2

OVCAR-3 = format: cell-based; settings: Homo sapiens, OVCAR-3, Ovarian cancer, read-out: Cell growth inhibition %
Description: as §1, §2

OVCAR-4 = format: cell-based; settings: Homo sapiens, OVCAR-4, Ovarian cancer, read-out: Cell growth inhibition %
Description: as §1, §2

OVCAR-5 = format: cell-based; settings: Homo sapiens, OVCAR-5, Ovarian cancer, read-out: Cell growth inhibition %
Description: as §1, §2

OVCAR-8 = format: cell-based; settings: Homo sapiens, OVCAR-8, Ovarian cancer, read-out: Cell growth inhibition %
Description: as §1, §2

SF-268 = format: cell-based; settings: Homo sapiens, SF-268, CNS cancer, read-out: Cell growth inhibition %
Description: as §1, §2

SF-539 = format: cell-based; settings: Homo sapiens, SF-539, CNS cancer, read-out: Cell growth inhibition %
Description: as §1, §2

SK-MEL-28 = format: cell-based; settings: Homo sapiens, SK-MEL-28, Melanoma, read-out: Cell growth inhibition %
Description: as §1, §2

SK-MEL-5 = format: cell-based; settings: Homo sapiens, SK-MEL-5, Melanoma, read-out: Cell growth inhibition %
Description: as §1, §2

SK-OV-3 = format: cell-based; settings: Homo sapiens, SK-OV-3, Ovarian cancer, read-out: Cell growth inhibition %
Description: as §1, §2

SN12C = format: cell-based; settings: Homo sapiens, Renal cancer, read-out: Cell growth inhibition %
Description: as §1, §2

SNB-19 = format: cell-based; settings: Homo sapiens, SNB-19, CNS cancer, read-out: Cell growth inhibition %
Description: as §1, §2

SR = format: cell-based; settings: Homo sapiens, Leukemia, read-out: Cell growth inhibition %
Description: as §1, §2

SW-620 = format: cell-based; settings: Homo sapiens, SW-620, Colon cancer, read-out: Cell growth inhibition %
Description: as §1, §2

T-47D = format: cell-based; settings: Homo sapiens, T47D, Breast cancer, read-out: Cell growth inhibition %
Description: as §1, §2

TK-10 = format: cell-based; settings: Homo sapiens, TK-10, Renal cancer, read-out: Cell growth inhibition %
Description: as §1, §2

U251 = format: cell-based; settings: Homo sapiens, U-251, U251, CNS cancer, read-out: Cell growth inhibition %
Description: as §1, §2

UACC-257 = format: cell-based; settings: Homo sapiens, UACC-257, Melanoma, read-out: Cell growth inhibition %
Description: as §1, §2

786-0 = format: cell-based, human; settings: Homo sapiens, 786-0, 786-0, Renal cancer, read-out: Cell growth inhibition %
Description: as §1, §2

HOP-92 = format: cell-based, human; settings: for inhibition at 10 µM: Homo sapiens, HOP-92, HOP-92, Non-small cell lung cancer, read-out: Cell growth inhibition %
Description: as §1, §2

UO-31 = format: cell-based, human; settings: Homo sapiens, UO-31, UO-31, Renal cancer, read-out: Cell growth inhibition %
Description: as §1, §2

SMILES | inhibition at 10 µM (A549/ATCC) | inhibition at 10 µM (DU-145) | inhibition at 10 µM (EKVX) | inhibition at 10 µM (HCC-2998) | inhibition at 10 µM (HL-60(TB)) | inhibition at 10 µM (HS 578 T) | inhibition at 10 µM (HT29) | inhibition at 10 µM (IGROV1) | inhibition at 10 µM (K-562) | inhibition at 10 µM (M14) | inhibition at 10 µM (MALME-3M) | inhibition at 10 µM (MDA-MB-231/ATCC) | inhibition at 10 µM (NCI-H23) | inhibition at 10 µM (NCI-H460) | inhibition at 10 µM (NCI-H522) | inhibition at 10 µM (NCI/ADR-RES) | inhibition at 10 µM (OVCAR-3) | inhibition at 10 µM (OVCAR-4) | inhibition at 10 µM (OVCAR-5) | inhibition at 10 µM (OVCAR-8) | also measured
C=CCn1c(SCC(=O)c2ccc(C)cc2)nnc1-c1c[nH]c2ccccc12 [Compound 6c, 2-((4-allyl-5-(1H-indol-3-yl)-4H-1,2,4-triazol-3-yl)thio)-1-(p-tolyl)ethanone] | 5.97% | -8.9% | 8.94% | -7.01% | 10.4% | -2.83% | -6.98% | 19.6% | 12.8% | 4.78% | 10.5% | 11.5% | -5.98% | 1.59% | 4.55% | 4.65% | -13.1% | -10.4% | -2.57% | 10.4% | inhibition at 10 µM (SF-268): -3.82%; inhibition at 10 µM (SF-539): 1.45%; inhibition at 10 µM (SK-MEL-28): -4.91%; inhibition at 10 µM (SK-MEL-5): 6.71%; inhibition at 10 µM (SK-OV-3): -22.4%; inhibition at 10 µM (SN12C): 5.47%; inhibition at 10 µM (SNB-19): 3.56%; inhibition at 10 µM (SR): 8.97%; inhibition at 10 µM (SW-620): -0.34%; inhibition at 10 µM (T-47D): 9.92%; inhibition at 10 µM (TK-10): -39.1%; inhibition at 10 µM (U251): 6.75%; inhibition at 10 µM (UACC-257): 6.7%; inhibition at 10 µM (786-0): 2.26%; Cell growth inhibition % (HOP-92; HOP-92, Non-small cell lung cancer, 10 µM): 49.73%; inhibition at 10 µM (HOP-92): 50%; inhibition at 10 µM (UO-31): 29.7%
COc1ccc(C(=O)CSc2nnc(-c3c[nH]c4ccccc34)n2-c2ccccc2)cc1 [Compound 6g, 2-((5-(1H-Indol-3-yl)-4-phenyl-4H-1,2,4-triazol-3-yl)thio)-1-(4-methoxyphenyl) Ethenone] | 26% | 31.1% | 70.7% | 22.2% | 18.7% | 84.5% | 16.9% | 39.5% | 41.8% | 24.3% | 116% | 54.4% | 43.5% | 34.5% | 54.3% | 100% | 46.4% | 99.4% | 22.6% | 84.5% | inhibition at 10 µM (SF-268): 59%; inhibition at 10 µM (SF-539): 71.5%; inhibition at 10 µM (SK-MEL-28): 50.3%; inhibition at 10 µM (SK-MEL-5): 18.6%; inhibition at 10 µM (SK-OV-3): 33.7%; inhibition at 10 µM (SN12C): 55.6%; inhibition at 10 µM (SNB-19): 70.2%; inhibition at 10 µM (SR): 20.3%; inhibition at 10 µM (SW-620): 13.7%; inhibition at 10 µM (T-47D): 43.3%; inhibition at 10 µM (TK-10): 36.1%; inhibition at 10 µM (U251): 65.6%; inhibition at 10 µM (UACC-257): 40.5%; inhibition at 10 µM (786-0): 54.8%; inhibition at 10 µM (HOP-92): 92.1%; inhibition at 10 µM (UO-31): 67.4%
